What all share (assay type): functional
Test [1] deals with Mus musculus. In words: In vivo inhibitory activity on the increase of serum GOT induced by D-GalN / LPS (liver injury) in mice at 50 mg/kg peroral administration. The following applies: route oral.
In test [2] the test system is Mus musculus. Nature of the test: In vivo inhibitory activity on the increase of serum GPT induced by D-GalN / LPS (liver injury) in mice at 50 mg/kg peroral administration. As to conditions: route oral.
The species entered for test [3] is Mus musculus. Nature of the test: In vitro inhibitory activity on the production of nitric oxide (NO) induced by LPS in mouse peritoneal macrophages at a concentration of 10e-4 M.
The species named for another test is Rattus norvegicus. Nature of the test: In vitro hepatocytotoxicity induced by D-GalN in primary cultured rat hepatocytes at a concentration of 10e-4 M. As to conditions: Hepatocyte.
Test [4] deals with Mus musculus. In words: In vivo inhibitory activity on the increase of serum GOT induced by D-GalN / LPS (liver injury) in mice at 20 mg/kg peroral administration. As to conditions: route oral.

Molecules are shown by their SMILES.

The values below come from ChEMBL document CHEMBL1130745, “Inhibitory effect and action mechanism of sesquiterpenes from Zedoariae Rhizoma on D-galactosamine/lipopolysaccharide-induced liver injury” (1998).

For orientation: inhibition in vivo means the drop in the measured response relative to a control, in per cent. Read a low inhibition in vivo as a weak effect. As usually defined, the inhibition is the change of the read-out against control, counted positive when it falls.

In the case of `C=C1CC2(O)O[C@@]3(CC2=C(C)C)[C@@H](C)CC[C@@H]13` (single isomer, unassigned) [ISOCURCUMENOL], the inhibition in vivo at 50 mg/kg in the test on Mus musculus [1] was 80.2%; in the test on Mus musculus [2], 77.3%. In addition, the figures for the inhibition at 100 µM in the test listed under Mus musculus [3] and in the test filed under Rattus norvegicus were 36.5% and 14.2%, respectively.

Consider `CC(C)=C1CC(=O)[C@@H](C)CC/C=C(\C)CC1=O`, for which the inhibition in vivo at 50 mg/kg was determined as 46.2% with Mus musculus [1] and 49.7% with Mus musculus [2]. Besides, the values for the inhibition at 100 µM in the test filed under Mus musculus [3] and in the test listed under Rattus norvegicus were 53.7% and -6.3%, respectively.

For `CC1=CC2(O)O[C@@]3(CC2=C(C)C)[C@@H](C)CC[C@@H]13` (single isomer, unassigned) [CURCUMENOL], the inhibition in vivo at 50 mg/kg in the test with Mus musculus [1] was found to be 53.3%; in the test with Mus musculus [2], 50.7%. The results for the inhibition at 100 µM in the test filed under Mus musculus [3] and in the test listed under Rattus norvegicus were 50.4% and 25.1%, respectively.

Take `C[C@]12CCC(=O)C=C1CCC1[C@@H]2[C@@H](O)C[C@@]2(C)[C@H]1CC[C@]2(O)C(=O)CO` (single isomer, unassigned) [HYDROCORTISONE]: testing at 20 mg/kg in the test on Mus musculus [4] gave an inhibition in vivo of 98.3%. Also, in the test with Mus musculus [2], the inhibition in vivo at 50 mg/kg worked out at 99%. The inhibition at 100 µM in the test listed under Mus musculus [3] is 92.6%.

In the case of `C/C1=C\CC[C@H](C)C(=O)C[C@@H](C(C)C)C(=O)C1`, the inhibition in vivo at 50 mg/kg in the test on Mus musculus [1] was found to be 74.6%; in the test with Mus musculus [2], 76.6%. Besides, the inhibition at 100 µM turned out to be 2% in the test filed under Mus musculus [3] and 77.1% in the test filed under Rattus norvegicus.

Consider `COc1cc(/C=C/C(=O)CC(=O)/C=C/c2ccc(O)c(OC)c2)ccc1O` [CURCUMIN], for which the inhibition in vivo at 50 mg/kg amounted to 63.4% in the test on Mus musculus [1] and 71.2% with Mus musculus [2]. Also, the inhibition at 100 µM in the test listed under Mus musculus [3] was 98.8%; in the test listed under Rattus norvegicus it was -44.3%.

As to `C/C1=C\CC[C@@H](C)C(=O)C[C@@H](C(C)C)C(=O)C1`, the values for the inhibition in vivo at 50 mg/kg with Mus musculus [1] and in the test on Mus musculus [2] were 58.4% and 59.3%, respectively. The inhibition at 100 µM was 41.9% in the test filed under Mus musculus [3] and 44.6% in the test listed under Rattus norvegicus.

Take `C/C1=C\Cc2c(C)coc2C/C(C)=C/CC1` [ISOFURANODIENE]: the inhibition in vivo at 50 mg/kg in the test with Mus musculus [1] is 74.3%; with Mus musculus [2], 72.9%. Moreover, the inhibition at 100 µM in the test listed under Mus musculus [3] was 96.1%; in the test listed under Rattus norvegicus, -0.5%.

On to `CC(C)=C1C/C=C(\C)CC/C=C(\C)CC1=O`, for which the inhibition in vivo at 50 mg/kg in the test on Mus musculus [1] stood at 78.1%; in the test on Mus musculus [2], 82.9%. Besides, the values for the inhibition at 100 µM in the test listed under Mus musculus [3] and in the test filed under Rattus norvegicus were 46.8% and 59.8%, respectively.

For the molecule `CC1=CC(=O)C(=C(C)C)CC2[C@@](C)(O)CC[C@]12O` (some centres undefined), the inhibition in vivo at 50 mg/kg in the test with Mus musculus [1] came to 89.1%; in the test with Mus musculus [2], 88%. Also, the results for the inhibition at 100 µM in the test listed under Mus musculus [3] and in the test listed under Rattus norvegicus were -8.8% and -41.5%, respectively.

In the case of `C/C1=C\C/C(=C(/C)CO)C(=O)C/C(C)=C/CC1`, the inhibition in vivo at 50 mg/kg is 21.5% in the test on Mus musculus [1] and 36.1% with Mus musculus [2]. Further, the inhibition at 100 µM in the test listed under Mus musculus [3] was -14.6%; in the test filed under Rattus norvegicus, -21.7%.

As for `C/C1=C\CC[C@]2(C)O[C@H]2C(=O)c2c(C)coc2C1`, the results for the inhibition in vivo at 50 mg/kg in the test on Mus musculus [1] and in the test with Mus musculus [2] were 35.4% and 39.5%, respectively. For the same molecule, the inhibition at 100 µM in the test listed under Mus musculus [3] is -5%; in the test listed under Rattus norvegicus, -7.9%.

For the molecule `CC(=O)CC[C@H]1[C@@H]2CC(=C(C)C)C(=O)C[C@]12C`, the results for the inhibition in vivo at 50 mg/kg with Mus musculus [1] and in the test with Mus musculus [2] were 88% and 90.1%, respectively. Moreover, the inhibition at 100 µM in the test filed under Mus musculus [3] is 13%; in the test listed under Rattus norvegicus, -12.2%.

Regarding `C=C1CC(=O)C(=C(C)C)CC2[C@H]1CC[C@]2(C)O` (some centres undefined), the inhibition in vivo at 50 mg/kg worked out at 22.3% in the test on Mus musculus [1] and 26.7% in the test with Mus musculus [2]. Besides, the inhibition at 100 µM was 54.5% in the test listed under Mus musculus [3] and -5.2% in the test listed under Rattus norvegicus.

As for `CC(C)=C1CC2[C@@H](CC[C@]2(C)O)[C@](C)(O)CC1=O` (some centres undefined), the values for the inhibition in vivo at 50 mg/kg with Mus musculus [1] and in the test with Mus musculus [2] were 54.7% and 60.7%, respectively. In addition, the inhibition at 100 µM is 31.7% in the test listed under Mus musculus [3] and -35.6% in the test filed under Rattus norvegicus.
